Assays:
[1] = Imaging of individual organs removed from CA20948 tumor-bearing rat; format: in vivo
Experimental: (§1) Cytate 1 was evaluated in the CA20948 Lewis rat model. […] At 19 hours post injection the animal was again imaged (FIG. 9B). […] As a control, the organs were imaged again (FIG. 10A) and the image was compared with that of the same tissues in the uninjected rat (FIG. 10B).
Individual organs were removed and imaged.

[2] = Monitoring of the blood clearance profile of peptide-dye conjugates; format: in vivo; settings: rat ear; tail vein bolus; 830 nm after excitation at 780 nm
Text: A laser of appropriate wavelength for excitation of the dye chromophore was directed into one end of a fiber optic bundle and the other end was positioned a few millimeters from the ear of a rat. A second fiber optic bundle was also positioned near the same ear to detect the emitted fluorescent light and the other end was directed into the optics and electronics for data collection. An interference filter (IF) in the collection optics train was used to select emitted fluorescent light of the appropriate wavelength for the dye chromophore.
Sprague-Dawley or Fischer 344 rats were used in these studies. The animals were anesthetized with urethane administered via intraperitoneal injection at a dose of 1.35 g/kg body weight. After the animals had achieved the desired plane of anesthesia, a 21 gauge butterfly with 12″ tubing was placed in the lateral tail vein of each animal and flushed with heparinized saline. The animals were placed onto a heating pad and kept warm throughout the entire study. The lobe of the left ear was affixed to a glass microscope slide to reduce movement and vibration.
Incident laser light delivered from the fiber optic was centered on the affixed ear. Data acquisition was then initiated, and a background reading of fluorescence was obtained prior to administration of the test agent. For Cytates 1 or 2, the peptide-dye conjugate was administered to the animal through a bolus injection, typically 0.5 to 2.0 mL, in the lateral tail vein. This procedure was repeated with several dye-peptide conjugates in normal and tumor-bearing rats. Representative profiles as a method to monitor blood clearance of the peptide-dye conjugate in normal and tumor-bearing animals are shown in FIGS. 12 to 16. The data were analyzed using a standard sigma plot software program for a one-compartment model.

[3] = test system: pancreatic acinar carcinoma expressing the SST-2 receptor (CA20948); assay: In vivo fluorescence imaging of rat pancreatic acinar carcinoma (CA20948); settings: for uptake (fluorescence) in tumor at 45 minutes: 45 minutes post injection, rats with CA20948 tumor
Text: (§2) A non-invasive in vivo fluorescence imaging apparatus was employed to assess the efficacy of contrast agents developed for tumor detection in animal models. A LaserMax Inc. laser diode of nominal wavelength 780 nm and nominal power of 40 mW was used. The detector was a Princeton Instruments model RTE/CCD-1317-K/2 CCD camera with a Rodenstock 10 mm F2 lens (stock #542.032.002.20) attached. An 830 nm interference […] (CVI Laser Corp., part # F10-830-4-2) was mounted in front of the CCD input lens such that only emitted fluorescent light from the contrast agent was imaged. Typically, an image of the animal was taken pre-injection of contrast agent. This image was subsequently subtracted (pixel by pixel) from the post injection images. However, the background subtraction was […] done once the animal had been removed from the sample area and returned at a later time for images taken several hours post injection.
The imaging apparatus and the procedure used are described in Example 12. Rat pancreatic acinar carcinoma expressing the SST-2 receptor (CA20948) was induced by solid implant technique in the left flank area, and palpable masses were detected nine days post implant. The images obtained at 2 and 30 minutes post injection are shown in FIG. 7E-F. FIGS. 7E-F are images of a rat with an induced pancreatic acinar carcinoma (CA20948) expressing the SST-2 receptor imaged at two minutes (FIG. 7E) and 30 minutes (FIG. 7F) post injection.
The imaging apparatus and the procedure used are described in Example 12, except that each animal received 500 μL of a 1.0 mg/mL solution of Cytate 1 solution of 25% dimethylsulfoxide in water.
Rat pancreatic acinar carcinoma expressing the SST-2 receptor (CA20948) were induced by solid implant technique in the left flank area, and palpable masses were detected 24 days post implant. Images were obtained at various times post injection.
as §1

[4] = test system: Pancreatic Ductal Adenocarcinoma (DSL 6A); assay: In vivo fluorescence imaging of pancreatic ductal adenocarcinoma (DSL 6A) tumors; parameters: species or system rat
Text: as §2
DSL 6A tumors were induced in male Lewis rats in the left flank area by the introduction of material from a solid (donor) implant, and the tumors were palpable in approximately 14 days. The animals were anesthetized with xylazine:ketamine:acepromazine, 1.5:1.5:0.5 at 0.8 mL/kg via intramuscular injection. The area of the tumor (left flank) was shaved to expose the tumor and the surrounding surface area. […]

[5] = test system: Prostatic Carcinoma (Dunning R3327-H); assay: In vivo fluorescence imaging of prostatic carcinoma (R3327-H) tumors; parameters: species or system rat
Text: as §2
The imaging apparatus and the procedure used are described as in Example 12. Prostate tumors (Dunning R3327-H) were induced in young male Copenhagen rats in the left flank area from a solid implant. These tumors grow very slowly and palpable masses were present 4-5 months post implant. FIGS. 7C-D are images of a rat with an induced prostatic carcinoma tumor (R3327-H) imaged at two minutes (FIG. 7C) and 30 minutes (FIG. 7D) post injection.

C[C@@H](O)[C@H](NC(=O)[C@@H]1CSSC[C@H](NC(=O)[C@@H](Cc2ccccc2)NC(=O)CCN2C(=CC=CC=CC=CC3=[N+](CCC(=O)O)c4ccc5ccccc5c4C3(C)C)C(C)(C)c3c2ccc2ccccc32)C(=O)N[C@@H](Cc2ccc(O)cc2)C(=O)N[C@H](Cc2c[nH]c3ccccc23)C(=O)N[C@@H](CCCCN)C(=O)N[C@@H]([C@@H](C)O)C(=O)N1)C(=O)O [Cytate 1, monoOctreotate-Bisethylcarboxymethylindocyanine dye]
uptake in adrenals ([1]; removed organ imaged): High uptake
uptake in heart ([1]; removed organ imaged): significantly lower uptake
uptake in liver ([1]; removed organ imaged): significantly lower uptake
uptake in pancreas ([1]; removed organ imaged): High uptake
uptake in spleen ([1]; removed organ imaged): significantly lower uptake
uptake in muscle ([1]; removed tissue imaged): significantly lower uptake
uptake in tumor tissue ([1]; removed tissue imaged): High uptake
blood fluorescence signal after bolus injection (rise) [2]: rapidly increased to a peak value
blood fluorescence signal after peak (clearance from the bloodstream) [2]: decayed as a function of time
uptake (fluorescence) in tumor at 45 minutes [3]: still intense
localization of dye in the tumor ([3]; 90 minutes post injection, CA20948 Lewis rat model): strong localization
tumor visualization ([3]; 19 hours post injection, CA20948 Lewis rat model): easily observed
time of maximal uptake into the tumor ([3]; CA20948 tumor, 500 μL of 1.0 mg/mL in 25% dimethylsulfoxide in water): about five
persistence of dye fluorescence in the tumor ([3]; CA20948 tumor, post-injection): remained intense in the tumor for several hours

C[C@@H](O)[C@H](NC(=O)[C@@H]1CSSC[C@H](NC(=O)[C@@H](Cc2ccccc2)NC(=O)CCN2C(=CC=CC=CC=CC3=[N+](CCC(=O)N[C@H](Cc4ccccc4)C(=O)N[C@H]4CSSC[C@@H](C(=O)N[C@H](C(=O)O)[C@@H](C)O)NC(=O)[C@H]([C@@H](C)O)NC(=O)[C@H](CCCCN)NC(=O)[C@@H](Cc5c[nH]c6ccccc56)NC(=O)[C@H](Cc5ccc(O)cc5)NC4=O)c4ccc5ccccc5c4C3(C)C)C(C)(C)c3c2ccc2ccccc32)C(=O)N[C@@H](Cc2ccc(O)cc2)C(=O)N[C@H](Cc2c[nH]c3ccccc23)C(=O)N[C@@H](CCCCN)C(=O)N[C@@H]([C@@H](C)O)C(=O)N1)C(=O)O [Cytate 2, bis Octreotate-Bisethylcarboxymethylindocyanine dye]
blood fluorescence signal after bolus injection (rise) [2]: rapidly increased to a peak value
blood fluorescence signal after peak (clearance from the bloodstream) [2]: decayed as a function of time

CC1(C)C(/C=C/C=C/C=C/C=C2\N(CCCCS(=O)(=O)O)c3ccc4ccccc4c3C2(C)C)=[N+](CCCCS(=O)(=O)[O-])c2ccc3ccccc3c21 [ICG, indocyanine green, reference compound]
dye intensity in the tumor ([4]; 30 minutes post-ICG injection vs 2 minutes, DSL 6A tumor, male Lewis rats, 500 μL of 0.42 mg/mL in water, tail vein): considerably diminished
perfusion of the agent into the tumor ([4]; DSL 6/A (pancreatic) tumor line, CCD camera): slow perfusion of the agent over time into the tumor
dye intensity in the tumor ([3]; 30 minutes post-ICG injection vs 2 minutes, CA20948 tumor): considerably diminished and almost absent
uptake (fluorescence) in tumor at 45 minutes [3]: mostly cleared
perfusion of the agent into the tumor ([3]; CA20948 (pancreatic) tumor line, absent after 30 minutes post injection): slight but transient perfusion
non-specific localization into the tumor line ([3]; CA20948, compared to the other two tumor lines): no non-specific localization
dye intensity in the tumor ([5]; 30 minutes post-ICG injection vs 2 minutes, R3327-H tumor, male Copenhagen rats): considerably diminished
perfusion of the agent into the tumor ([5]; Dunning R3327H (prostate) tumor line, CCD camera): slow perfusion of the agent over time into the tumor

Source: patent US7566444B2, “Versatile hydrophilic dyes” (Mallinckrodt Inc., priority 2000, dated 2009)
